Results: patent publication US7592373B2 (Boehringer Ingelheim International GmbH, priority 2003, dated 2009)
Structures can show the parent of a compound that is named as a salt.

Compound | melting point
COC1CCN(Cc2ccc(/C=C/C(=O)Nc3ccc(-c4ccc(Cl)cc4)cc3)cc2)CC1 [Example 5.4, (E)-N-(4′-chlorobiphenyl-4-yl)-3-[4-(4-methoxypiperidin-1-ylmethyl)phenyl]acrylamide] | 205 to 206 °C
COc1ccc(-c2ccc(NC(=O)C#Cc3ccc(CN4CCCCC4)cc3)cc2)cc1 [Example 1.8, 3-(4-piperidin-1-ylmethylphenyl)propynoic acid-(4′-methoxybiphenyl-4-yl)amide] | 170 °C
CCN(CC)CCOc1ccc(NC(=O)C#Cc2ccc(C(F)(F)F)cc2Cl)cc1NS(C)(=O)=O [Example 4.23, 3-(2-chloro-4-trifluoromethylphenyl)propynoic acid-[4-(3-diethylaminoethoxy)-3-methanesulfonylaminophenyl]amide] | 57 to 60 °C
CC1CCN(C2(c3ccc(C#CC(=O)Nc4ccc(-c5ccc(Cl)cc5)cc4)cc3)CC2)CC1 [Example 1.424, 3-{4-[1-(4-methylpiperidin-1-yl)cyclopropyl]phenyl}propynoic acid(4′-chlorobiphenyl-4-yl)amide] | 128 to 129 °C
O=C(CCc1ccc(CNC2CCCCC2)cc1)Nc1ccc(-c2ccc(Cl)cc2)cc1 [Example 6.39, N-(4′-chlorobiphenyl-4-yl)-3-(4-cyclohexylaminomethylphenyl)propionamide] | 208 °C
O=C(C#Cc1ccc(-c2ccccc2)cc1Cl)Nc1ccc(CN2CCCCC2)cc1 (as salt: hydrochloride) [Example 3.33, 3-(3-chlorobiphenyl-4-yl)propynoic acid-(4-piperidin-1-ylmethylphenyl)amide hydrochloride] | 260 to 265 °C
O=C(C#Cc1ccc(C(F)(F)F)cc1Cl)Nc1ccc(OCCn2cccn2)cc1 [Example 3.43, 3-(2-chloro-4-trifluoromethylphenyl)propynoic acid-[4-(2-pyrazol-1-ylethoxy)phenyl]amide] | 120 to 125 °C
O=C(C#Cc1ccc(CN2CCCC2)cc1)Nc1ccc(-c2ccc(Cl)cc2)cc1F [Example 1.17, 3-(4-pyrrolidin-1-ylmethylphenyl)propynoic acid-(4′-chloro-3-fluorobiphenyl-4-yl)amide] | 136 °C
CN(Cc1ccc(CCC(=O)Nc2ccc(-c3ccc(Cl)cc3)cc2)cc1)CC1CC1 [Example 6.13, N-(4′-chlorobiphenyl-4-yl)-3-{4-[(cyclopropylmethylmethylamino)methyl]phenyl}propionamide] | 156 °C
COc1cc(NC(=O)C#Cc2ccc(C(F)(F)F)cc2Cl)ccc1OCCN1C(C)CCCC1C (stereo not drawn) [Example 4.277, 3-(2-chloro-4-trifluoromethylphenyl)propynoic acid-{4-[2-(2,6-dimethylpiperidin-1-yl)ethoxy]-3-methoxyphenyl}amide] | 225 to 227 °C
COc1cc(NC(=O)C#Cc2ccc(C(F)(F)F)cc2Cl)ccc1OCCN1CCOCC1 [Example 4.273, 3-(2-chloro-4-trifluoromethylphenyl)propynoic acid-[3-methoxy-4-(2-morpholin-4-ylethoxy)phenyl]amide] | 209 to 211 °C
CCN(CC)CCOc1ccc(NC(=O)C#Cc2ccc(C(F)(F)F)cc2Cl)cc1F [Example 4.25, 3-(2-chloro-4-trifluoromethylphenyl)propynoic acid-[4-(3-diethylaminoethoxy)-3-fluorophenyl]amide] | 85 to 88 °C
O=C(CCc1ccc(CN2CCOCC2)cc1)Nc1ccc(-c2ccc(Cl)cc2)cc1 [Example 6.4, N-(4′-chlorobiphenyl-4-yl)-3-(4-morpholin-4-ylmethylphenyl)propionamide] | 193 to 194 °C
O=C(CCc1ccc(CNCC2CCCCC2)cc1)Nc1ccc(-c2ccc(Cl)cc2)cc1 [Example 6.22, N-(4′-chlorobiphenyl-4-yl)-3-{4-[(cyclohexylmethylamino)methyl]phenyl}propionamide] | 201 to 204 °C
CCN(CC)CCOc1ccc(NC(=O)C#Cc2ccc(Cl)cc2Cl)cc1Cl [Example 4.1, 3-(2,4-dichlorophenyl)propynoic acid-[3-chloro-4-(2-diethylaminoethoxy)phenyl]amide] | 98 to 100 °C
CN(Cc1ccc(CCC(=O)Nc2ccc(-c3ccc(Cl)cc3)cc2)cc1)Cc1cccnc1 [Example 6.33, N-(4′-chlorobiphenyl-4-yl)-3-{4-[(methylpyridin-3-ylmethylamino)methyl]phenyl}propionamide] | 168 to 169 °C
NC(=O)C1CCN(Cc2ccc(CCC(=O)Nc3ccc(-c4ccc(Cl)cc4)cc3)cc2)CC1 [Example 6.5, 1-{4-[2-(4′-chlorobiphenyl-4-ylcarbamoyl)ethyl]benzyl}piperidine-4-carboxylic acid amide] | 240 to 241 °C
O=C(/C=C/c1ccc(CN2CCCC2)cc1)Nc1ccc(-c2ccc(Cl)cc2)cc1 [Example 5.13, (E)-N-(4′-chlorobiphenyl-4-yl)-3-(4-pyrrolidin-1-ylmethylphenyl)acrylamide] | 219 °C

Compound | melting point
COCCN(Cc1ccc(CCC(=O)Nc2ccc(-c3ccc(Cl)cc3)cc2)cc1)CC(C)(C)O [Example 6.14, N-(4′-chlorobiphenyl-4-yl)-3-(4-{[(2-hydroxy-2-methylpropyl)-(2-methoxyethyl)amino]methyl}phenyl)propionamide] | 108 to 109 °C
O=C(/C=C/c1ccc(CN2CCC3(CCCC3)CC2)cc1)Nc1ccc(-c2ccc(Cl)cc2)cc1 [Example 5.25, (E)-3-[4-(8-azaspiro[4.5]dec-8-ylmethyl)phenyl]-N-(4′-chlorobiphenyl-4-yl)acrylamide] | 250 °C
COc1cc(NC(=O)C#Cc2ccc(C(F)(F)F)cc2Cl)ccc1OCCN1CCC(C(N)=O)CC1 [Example 4.276, 1-(2-{4-[3-(2-chloro-4-trifluoromethylphenyl)propynoylamino]-2-methoxyphenoxy}ethyl)piperidine-4-carboxylic acid amide] | 150 °C
CCN(CC)CCOc1ccc(NC(=O)C#Cc2ccc(C(F)(F)F)cc2Cl)cc1N [Example 4.22, 3-(2-chloro-4-trifluoromethylphenyl)propynoic acid-[3-amino-4-(2-diethylaminoethoxy)phenyl]amide] | 127 to 130 °C
COC1CCN(Cc2ccc(C#CC(=O)Nc3ccc(-c4ccc(Cl)cc4)cc3)cc2)CC1 [Example 1.36, 3-[4-(4-methoxypiperidin-1-ylmethyl)phenyl]propynoic acid-(4′-chlorobiphenyl-4-yl)amide] | 145 to 146 °C
C[C@@H]1C[C@H](C)CN(Cc2ccc(CCC(=O)Nc3ccc(-c4ccc(Cl)cc4)cc3)cc2)C1 [Example 6.26, N-(4′-chlorobiphenyl-4-yl)-3-[4-((3S,5R)-3,5-dimethylpiperidin-1-ylmethyl)phenyl]propionamide] | 164 to 169 °C
CC(C)N(Cc1ccc(CCC(=O)Nc2ccc(-c3ccc(Cl)cc3)cc2)cc1)C1CCCCC1 [Example 6.40, N-(4′-chlorobiphenyl-4-yl)-3-{4-[(cyclohexylisopropylamino)methyl]phenyl}propionamide] | 165 °C
CCN(CC)CCOc1ccc(NC(=O)C#Cc2ccc(Cl)cc2Cl)cc1OC (as salt: hydrochloride) [Example 4.7, 3-(2,4-dichlorophenyl)propynoic acid-[3-methoxy-4-(2-diethylaminoethoxy)phenyl]amide hydrochloride] | 205 to 207 °C
O=C(C#Cc1ccc(-c2ccc(Cl)cc2)cc1)Nc1ccc(CN2CCC(O)CC2)cc1 [Example 3.18, 3-(4′-chlorobiphenyl-4-yl)propynoic acid-[4-(4-hydroxy-1-piperidin-1-ylmethyl)phenyl]amide] | 243 to 247 °C
COCCN(Cc1ccc(/C=C/C(=O)Nc2ccc(-c3ccc(Cl)cc3)cc2)cc1)CC(C)(C)O [Example 5.27, (E)-N-(4′-chlorobiphenyl-4-yl)-3-(4-{[(2-hydroxy-2-methylpropyl)-(2-methoxyethyl)amino]methyl}phenyl)acrylamide] | 125 to 126 °C
CN(Cc1ccc(CCC(=O)Nc2ccc(-c3ccc(Cl)cc3)cc2)cc1)C1CCOCC1 [Example 6.12, N-(4′-chlorobiphenyl-4-yl)-3-(4-{[methyl-(tetrahydropyran-4-yl)amino]methyl}phenyl)propionamide] | 167 to 173 °C
O=C(CCc1ccc(CNCCC2CCCCC2)cc1)Nc1ccc(-c2ccc(Cl)cc2)cc1 [Example 6.35, N-(4′-chlorobiphenyl-4-yl)-3-{4-[(cyclohexylethylamino)methyl]phenyl}propionamide] | 149 to 150.5 °C
CC1CCN(Cc2ccc(CCC(=O)Nc3ccc(-c4ccc(Cl)cc4)cc3)cc2)CC1 [Example 6.2, N-(4′-chlorobiphenyl-4-yl)-3-[4-(4-methylpiperidin-1-ylmethyl)phenyl]propionamide] | 150 to 151 °C
NC(=O)C1CCN(Cc2ccc(/C=C/C(=O)Nc3ccc(-c4ccc(Cl)cc4)cc3)cc2)CC1 [Example 5.6, 1-{4-[(E)-2-(4′-chlorobiphenyl-4-ylcarbamoyl)vinyl]benzyl}piperidine-4-carboxylic acid amide] | 254 to 255 °C
O=C(/C=C/c1ccc(CN2CCC(CO)CC2)cc1)Nc1ccc(-c2ccc(Cl)cc2)cc1 [Example 5.8, (E)-N-(4′-chlorobiphenyl-4-yl)-3-[4-(4-hydroxymethylpiperidin-1-ylmethyl)phenyl]acrylamide] | 190 to 191 °C
O=C(CCc1ccc(CN2CCC(CO)CC2)cc1)Nc1ccc(-c2ccc(Cl)cc2)cc1 [Example 6.6, N-(4′-chlorobiphenyl-4-yl)-3-[4-(4-hydroxymethylpiperidin-1-ylmethyl)phenyl]propionamide] | 185 to 186 °C
CN(CCOc1ccccc1)Cc1ccc(CCC(=O)Nc2ccc(-c3ccc(Cl)cc3)cc2)cc1 [Example 6.20, N-(4′-chlorobiphenyl-4-yl)-3-(4-{[methyl-(2-phenoxyethyl)amino]methyl}phenyl)propionamide] | 122 to 124 °C
O=C(C#Cc1ccc(CNCCC2CCCCC2)cc1)Nc1ccc(-c2ccc(Cl)cc2)cc1 [Example 1.52, 3-{4-[(cyclohexylethylamino)methyl]phenyl}propynoic acid-(4′-chlorobiphenyl-4-yl)amide] | 156 to 157 °C
